Assay results taken from ChEMBL document CHEMBL1201862, “PubChem BioAssay data set” (2004).
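Following 48 hours of exposure in 96-well plates, responses at five concentrations were used to interpolate endpoints linearly. Abbreviation: GI50, concentration required for 50% inhibition of growth.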 Calls of active or inactive are those of the source. No stated cut-off is given here; in the data, active = GI50 up to about 1.1 µM and inactive = higher.

Legend:
Experiment in all cases: growth of human tumour cells (NCI), 48 h
A498 = system: A498
A549 = system: A549
CAKI-1 = system: CAKI-1
CCRF-CEM = system: CCRF-CEM
COLO 205 = system: COLO 205
DLD-1 = system: DLD-1
DMS-114 = system: DMS-114
DMS-273 = system: DMS-273
EKVX = system: EKVX
HCC 2998 = system: HCC 2998
HCT-116 = system: HCT-116
HCT-15 = system: HCT-15
HL-60 = system: HL-60
HOP-18 = system: HOP-18
HOP-62 = system: HOP-62
HOP-92 = system: HOP-92
HT-29 = system: HT-29
IGROV-1 = system: IGROV-1
K562 = system: K562
KM-20L2 = system: KM-20L2
KM12 = system: KM12
LOX IMVI = system: LOX IMVI
M19-MEL = system: M19-MEL
MCF7 = system: MCF7
MOLT-4 = system: MOLT-4
Malme-3M = system: Malme-3M
NCI-H226 = system: NCI-H226
NCI-H23 = system: NCI-H23
NCI-H460 = system: NCI-H460
NCI-H522 = system: NCI-H522
NCI/ADR-RES = system: NCI/ADR-RES
OVCAR-3 = system: OVCAR-3
OVCAR-4 = system: OVCAR-4
OVCAR-5 = system: OVCAR-5
OVCAR-8 = system: OVCAR-8
RPMI-8226 = system: RPMI-8226
RXF 393 = system: RXF 393
SF-268 = system: SF-268
SF-295 = system: SF-295
SF-539 = system: SF-539
SK-MEL-28 = system: SK-MEL-28
SK-MEL-2 = system: SK-MEL-2
SK-MEL-5 = system: SK-MEL-5
SK-OV-3 = system: SK-OV-3
SN12C = system: SN12C
SNB-19 = system: SNB-19
SNB-75 = system: SNB-75
SNB-78 = system: SNB-78
SW-620 = system: SW-620
U-251 = system: U-251
UACC-257 = system: UACC-257
UACC-62 = system: UACC-62
UO-31 = system: UO-31
XF498 = system: XF498

With `c1ccc2cc3c(cc2c1)OP1(Oc2cccc4cccnc24)(O3)Oc2cc3ccccc3cc2O1` the GI50 (A498) was 18.2 µM (inactive), the GI50 (A549) was 5.9 µM (inactive) and the GI50 (CAKI-1) was 4.88 µM (inactive). For the same molecule, the GI50 (CCRF-CEM) was 0.984 µM (active), the GI50 (COLO 205) was 6.32 µM (inactive) and the GI50 (DLD-1) was 4.2 µM (inactive). The GI50 (DMS-114) was 1.79 µM (inactive), the GI50 (DMS-273) was 3.49 µM (inactive) and the GI50 (EKVX) was 3.37 µM (inactive). The GI50 (HCC 2998) was 8.59 µM (inactive), the GI50 (HCT-116) was 3.24 µM (inactive) and the GI50 (HCT-15) was 3.05 µM. The GI50 (HL-60) was 1.63 µM (inactive), the GI50 (HOP-18) was 9.48 µM (inactive) and the GI50 (HOP-62) was 21 µM (inactive). For the same molecule, the GI50 (HOP-92) was 3.57 µM (inactive), the GI50 (HT-29) was 2.9 µM (inactive) and the GI50 (IGROV-1) was 5.36 µM (inactive). For the same molecule, the GI50 (K562) was 2.04 µM (inactive), the GI50 (KM-20L2) was 3.39 µM (inactive) and the GI50 (KM12) was 5.31 µM (inactive). For the same molecule, the GI50 (LOX IMVI) was 3.72 µM (inactive), the GI50 (M19-MEL) was 9.89 µM (inactive) and the GI50 (MCF7) was 1.13 µM (inactive). For the same molecule, the GI50 (MOLT-4) was 1.57 µM (inactive), the GI50 (Malme-3M) was 7.21 µM (inactive) and the GI50 (NCI-H226) was 9.89 µM (inactive). For the same molecule, the GI50 (NCI-H23) was 2.71 µM (inactive), the GI50 (NCI-H460) was 2.52 µM (inactive) and the GI50 (NCI-H522) was 2.39 µM (inactive). The GI50 (NCI/ADR-RES) was 1.28 µM (inactive), the GI50 (OVCAR-3) was 1.58 µM (inactive) and the GI50 (OVCAR-4) was 3.61 µM (inactive). For the same molecule, the GI50 (OVCAR-5) was 4.43 µM (inactive), the GI50 (OVCAR-8) was 3.56 µM (inactive) and the GI50 (RPMI-8226) was 1.07 µM (active). For the same molecule, the GI50 (RXF 393) was 7.29 µM (inactive), the GI50 (SF-268) was 4.81 µM (inactive) and the GI50 (SF-295) was 4.67 µM (inactive). The GI50 (SF-539) was 6.15 µM (inactive), the GI50 (SK-MEL-28) was 15.8 µM (inactive) and the GI50 (SK-MEL-2) was 7.66 µM (inactive). The GI50 (SK-MEL-5) was 3.17 µM (inactive), the GI50 (SK-OV-3) was 34.7 µM (inactive) and the GI50 (SN12C) was 14.8 µM (inactive). The GI50 (SNB-19) was 24.3 µM (inactive), the GI50 (SNB-75) was 18.6 µM (inactive) and the GI50 (SNB-78) was 26.4 µM (inactive). For the same molecule, the GI50 (SW-620) was 2.81 µM (inactive), the GI50 (U-251) was 6.85 µM (inactive) and the GI50 (UACC-257) was 2.69 µM (inactive). For the same molecule, the GI50 (UACC-62) was 3.05 µM (inactive), the GI50 (UO-31) was 5.01 µM (inactive) and the GI50 (XF498) was 3.71 µM (inactive).

With `O=C(O)C1CCC(=O)N1S(=O)(=O)c1ccccc1` (stereo not drawn) the GI50 (A498) was > 100 µM (inactive), the GI50 (A549) was > 100 µM (inactive) and the GI50 (CAKI-1) was > 100 µM (inactive). For the same molecule, the GI50 (CCRF-CEM) was > 100 µM (inactive), the GI50 (COLO 205) was > 100 µM (inactive) and the GI50 (DLD-1) was > 100 µM (inactive). For the same molecule, the GI50 (DMS-114) was > 100 µM (inactive), the GI50 (DMS-273) was > 100 µM (inactive) and the GI50 (EKVX) was > 100 µM (inactive). For the same molecule, the GI50 (HCC 2998) was > 100 µM (inactive), the GI50 (HCT-116) was > 100 µM (inactive) and the GI50 (HCT-15) was > 100 µM. The GI50 (HL-60) was > 100 µM (inactive), the GI50 (HOP-18) was > 100 µM (inactive) and the GI50 (HOP-62) was > 100 µM (inactive). For the same molecule, the GI50 (HOP-92) was 99.1 µM (inactive), the GI50 (HT-29) was > 100 µM (inactive) and the GI50 (IGROV-1) was > 100 µM (inactive). For the same molecule, the GI50 (K562) was > 100 µM (inactive), the GI50 (KM-20L2) was > 100 µM (inactive) and the GI50 (KM12) was > 100 µM (inactive). The GI50 (LOX IMVI) was > 100 µM (inactive), the GI50 (M19-MEL) was > 100 µM (inactive) and the GI50 (MCF7) was > 100 µM (inactive). The GI50 (MOLT-4) was > 100 µM (inactive), the GI50 (Malme-3M) was > 100 µM (inactive) and the GI50 (NCI-H226) was > 100 µM (inactive). The GI50 (NCI-H23) was > 100 µM (inactive), the GI50 (NCI-H460) was > 100 µM (inactive) and the GI50 (NCI-H522) was > 100 µM (inactive). For the same molecule, the GI50 (NCI/ADR-RES) was > 100 µM (inactive), the GI50 (OVCAR-3) was > 100 µM (inactive) and the GI50 (OVCAR-4) was > 100 µM (inactive). The GI50 (OVCAR-5) was > 100 µM (inactive), the GI50 (OVCAR-8) was > 100 µM (inactive) and the GI50 (RPMI-8226) was > 100 µM (inactive). The GI50 (RXF 393) was > 100 µM (inactive), the GI50 (SF-268) was > 96.2 µM (inactive) and the GI50 (SF-295) was > 100 µM (inactive). The GI50 (SF-539) was > 100 µM (inactive), the GI50 (SK-MEL-28) was > 100 µM (inactive) and the GI50 (SK-MEL-2) was > 100 µM (inactive). For the same molecule, the GI50 (SK-MEL-5) was > 100 µM (inactive), the GI50 (SK-OV-3) was > 100 µM (inactive) and the GI50 (SN12C) was > 100 µM (inactive). For the same molecule, the GI50 (SNB-19) was > 100 µM (inactive), the GI50 (SNB-75) was > 100 µM (inactive) and the GI50 (SNB-78) was > 100 µM (inactive). For the same molecule, the GI50 (SW-620) was > 100 µM (inactive), the GI50 (U-251) was > 100 µM (inactive) and the GI50 (UACC-257) was > 100 µM (inactive). The GI50 (UACC-62) was > 100 µM (inactive), the GI50 (UO-31) was > 100 µM (inactive) and the GI50 (XF498) was > 100 µM (inactive).
